The term MIC denotes the least concentration at which growth counts as inhibited. What is called IC50 is the concentration that gives 50% inhibition.

Test [1] has as its system Staphylococcus aureus. Kind of test: Antibacterial activity against Staphylococcus aureus ATCC 25923 by NCCLS two-fold dilution method. In kind it is functional. The note with it: for MIC: Staphylococcus aureus, ATCC 25923.
For test [2], the system named is Staphylococcus aureus. Kind of test: Antibacterial activity against methicillin-resistant Staphylococcus aureus ATCC 700699 by NCCLS two-fold dilution method. In kind it is functional.
Test [3] has as its system Staphylococcus aureus. Kind of test: Antibacterial activity against Staphylococcus aureus ATCC 29213 by NCCLS two-fold dilution method. In kind it is functional.
For test [4], the system named is Staphylococcus aureus. Kind of test: Antibacterial activity against gentamicin-resistant Staphylococcus aureus ATCC 33592 by NCCLS two-fold dilution method. In kind it is functional.
The test system of test [5] is Staphylococcus aureus. Kind of test: Antibacterial activity against Staphylococcus aureus ATCC 25923 after 24 hrs by spectrophotometric analysis. Type of test: functional, organism-based. The note with it: Staphylococcus aureus, ATCC 25923, 24 h; for IC50: read-out: IC50.
In test [6] the test system is Staphylococcus aureus. Kind of test: Antibacterial activity against methicillin-resistant Staphylococcus aureus ATCC 700699 after 24 hrs by spectrophotometric analysis. Type of test: functional, organism-based. Particulars: Staphylococcus aureus, ATCC 700699, 24 h; for IC50: read-out: IC50.
For test [7], the system named is Staphylococcus aureus. Kind of test: Antibacterial activity against Staphylococcus aureus ATCC 29213 after 24 hrs by spectrophotometric analysis. Type of test: functional, organism-based. Particulars: Staphylococcus aureus, ATCC 29213, 24 h; for IC50: read-out: IC50.
The test system of test [8] is Staphylococcus aureus. Kind of test: Antibacterial activity against gentamicin-resistant Staphylococcus aureus ATCC 33592 after 24 hrs by spectrophotometric analysis. Type of test: functional, organism-based. Particulars: Staphylococcus aureus, ATCC 33592, 24 h; for IC50: read-out: IC50.

Converted amounts (≈) assume the structure as drawn.

On to `O=C(O)c1cn(Cc2ccc(C(F)(F)F)cc2)c2cc(N3CCN(C(c4ccccc4)c4nnnn4C4CCCCC4)CC3)c(F)cc2c1=O` (centres undefined), for which, in test [1], the “-logMIC” value is reported as 4.741. Also, the MIC in test [1] was 12.5 µg/mL (≈ 18.1 µM); in test [2] it was more than 50 µg/mL; in test [3], 6.25 µg/mL (≈ 9.06 µM); in test [4] it was 25 µg/mL (≈ 36.2 µM); in test [5], 17.5 µg/mL (≈ 25.4 µM); in test [6], more than 50 µg/mL. Besides, the MIC in test [7] was 4.4 µg/mL (≈ 6.38 µM); in test [8] it was 40.5 µg/mL (≈ 58.7 µM). The IC50 in test [5] is 5.2 µg/mL (≈ 7.54 µM); in test [6] it was more than 50 µg/mL; in test [7], 2.2 µg/mL (≈ 3.19 µM); in test [8], 21 µg/mL (≈ 30.4 µM).

Consider `CCn1cc(C(=O)O)c(=O)c2cc(F)c(N3CCN(C(c4ccc(F)cc4)c4nnnn4C4CCCCC4)CC3)cc21` (centres undefined), for which, in test [1], the “-logMIC” value was 5.568. Further, the minimum inhibitory concentration (MIC) in test [1] is 1.56 µg/mL (≈ 2.7 µM); in test [2], 50 µg/mL (≈ 86.6 µM); in test [3] it was 50 µg/mL (≈ 86.6 µM); in test [4], 50 µg/mL (≈ 86.6 µM); in test [5], 2.1 µg/mL (≈ 3.64 µM); in test [6] it was 50 µg/mL (≈ 86.6 µM). Besides, the MIC in test [7] was more than 50 µg/mL; in test [8], 50 µg/mL (≈ 86.6 µM). Besides, the half-maximal inhibitory concentration (IC50) turned out to be 0.5 µg/mL (≈ 0.866 µM) in test [5], 50 µg/mL (≈ 86.6 µM) in test [6], 50 µg/mL (≈ 86.6 µM) in test [7] and 50 µg/mL (≈ 86.6 µM) in test [8].

As for `O=C(O)c1cn(Cc2ccc(C(F)(F)F)cc2)c2cc(N3CCN(C(c4ccc(F)cc4)c4nnnn4C4CCCCC4)CC3)c(F)cc2c1=O` (centres undefined), the “-logMIC” value in test [1] amounted to 4.752. The MIC in test [1] is 12.5 µg/mL (≈ 17.7 µM); in test [2], more than 50 µg/mL; in test [3], more than 50 µg/mL; in test [4] it was more than 50 µg/mL; in test [5], 12.5 µg/mL (≈ 17.7 µM); in test [6], more than 50 µg/mL. The minimal inhibitory concentration (MIC) in test [7] and in test [8] was more than 50 µg/mL each time. Moreover, the IC50 in test [5] was 5.2 µg/mL (≈ 7.35 µM); in test [6], more than 50 µg/mL; in test [7] it was more than 50 µg/mL; in test [8], more than 50 µg/mL.

Turning to `CC(C)(C)n1nnnc1C(c1cccc2ccccc12)N1CCN(c2cc3c(cc2F)c(=O)c(C(=O)O)cn3Cc2ccc(C(F)(F)F)cc2)CC1` (centres undefined), the “-logMIC” value in test [1] is reported as 4.455. For the same molecule, the MIC in test [1], in test [2], in test [3], in test [4], in test [5] and in test [6] was 50 µg/mL (≈ 70.1 µM) each time. For the same molecule, the minimal inhibitory concentration (MIC) is 50 µg/mL (≈ 70.1 µM) in test [7] and more than 50 µg/mL in test [8]. For the same molecule, the IC50 is 50 µg/mL (≈ 70.1 µM) in test [5], 50 µg/mL (≈ 70.1 µM) in test [6], more than 50 µg/mL in test [7] and more than 50 µg/mL in test [8].

On to `COc1ccc(C(c2nnnn2C(C)(C)C)N2CCN(c3cc4c(cc3F)c(=O)c(C(=O)O)cn4Cc3ccc(C(F)(F)F)cc3)CC2)c(OC)c1OC` (centres undefined), for which, in test [1], the “-logMIC” value is on record as 4.178. Further, the MIC in test [1], in test [2], in test [3], in test [4], in test [5] and in test [6] was 50 µg/mL (≈ 66.3 µM) in each case. Moreover, the MIC in test [7] and in test [8] was 50 µg/mL (≈ 66.3 µM) each time. The concentration for half-maximal inhibition (IC50) in test [5], in test [6], in test [7] and in test [8] was 50 µg/mL (≈ 66.3 µM) each time.

Take `COc1ccc(C(c2nnnn2C2CCCCC2)N2CCN(c3cc4c(cc3F)c(=O)c(C(=O)O)cn4Cc3ccc(C(F)(F)F)cc3)CC2)c(OC)c1OC` (centres undefined): the “-logMIC” value in test [1] is recorded as 4.193. In addition, the MIC in test [1] is 50 µg/mL (≈ 64.1 µM); in test [2], more than 50 µg/mL; in test [3], more than 50 µg/mL; in test [4], more than 50 µg/mL; in test [5], 50 µg/mL (≈ 64.1 µM); in test [6] it was more than 50 µg/mL. The MIC in test [7] and in test [8] was more than 50 µg/mL throughout. The IC50 is more than 50 µg/mL in test [5], more than 50 µg/mL in test [6], more than 50 µg/mL in test [7] and 50 µg/mL (≈ 64.1 µM) in test [8].

For `CC(C)c1ccc(C(c2nnnn2C(C)(C)C)N2CCN(c3cc4c(cc3F)c(=O)c(C(=O)O)cn4Cc3ccc(C(F)(F)F)cc3)CC2)cc1` (centres undefined), the “-logMIC” value in test [1] is reported as 4.149. The MIC in test [1] was 3.12 µg/mL (≈ 4.42 µM); in test [2], 3.12 µg/mL (≈ 4.42 µM); in test [3] it was 6.25 µg/mL (≈ 8.86 µM); in test [4], 3.12 µg/mL (≈ 4.42 µM); in test [5], 3.12 µg/mL (≈ 4.42 µM); in test [6], 1.6 µg/mL (≈ 2.27 µM). In addition, the minimum inhibitory concentration (MIC) in test [7] stood at 3.1 µg/mL (≈ 4.39 µM); in test [8] it was 0.87 µg/mL (≈ 1.23 µM). For the same molecule, the IC50 in test [5] was 1.8 µg/mL (≈ 2.55 µM); in test [6], 1.4 µg/mL (≈ 1.98 µM); in test [7] it was 1.5 µg/mL (≈ 2.13 µM); in test [8], 0.8 µg/mL (≈ 1.13 µM).

`CCn1cc(C(=O)O)c(=O)c2cc(F)c(N3CCN(C(c4ccc(C(C)C)cc4)c4nnnn4C(C)(C)C)CC3)cc21` (centres undefined): the “-logMIC” value in test [1] was 4.06. The MIC in test [1] is 50 µg/mL (≈ 86.9 µM); in test [2], 50 µg/mL (≈ 86.9 µM); in test [3] it was 50 µg/mL (≈ 86.9 µM); in test [4], more than 50 µg/mL; in test [5] it was 50 µg/mL (≈ 86.9 µM); in test [6], 50 µg/mL (≈ 86.9 µM). Besides, the MIC in test [7] is more than 50 µg/mL; in test [8], 50 µg/mL (≈ 86.9 µM). The IC50 is 50 µg/mL (≈ 86.9 µM) in test [5], 50 µg/mL (≈ 86.9 µM) in test [6], 50 µg/mL (≈ 86.9 µM) in test [7] and more than 50 µg/mL in test [8].
